Some test systems named below: NCI-H460; NCI/ADR-RES; DU-145; BT-549; CCRF-CEM; CAKI-1; TK-10; OVCAR-8; 786-0; Hs-578T; HT-29; MOLT-4; IGROV-1; EKVX; UO-31; HCT-15; SNB-19; OVCAR-4; SF-539.
Experiment in all cases: inhibition of tumour cell growth, NCI panel, 48 h

SMILES strings stand for the structures.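 A five-concentration, 48-hour dose response in 96-well plates underlies each endpoint, interpolated linearly between surrounding concentrations. GI50 marks 50% less growth.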 Calls of active or inactive are those of the source. Rule as the data show it: active = GI50 up to about 1.1 µM and inactive = higher.

In the case of `CCCC#CC(O)(C(=O)OC1CCN(C)CC1)C1CCCCC1` (stereo unspecified), the GI50 with NCI-H460 was > 100 µM (inactive); with NCI/ADR-RES, > 100 µM (inactive); in the test on DU-145, > 100 µM (inactive); in the test with BT-549, 88.7 µM (inactive); in the test with CCRF-CEM, > 100 µM (inactive); in the test on CAKI-1 it was > 100 µM (inactive). Moreover, the GI50 in the test on TK-10 was > 100 µM (inactive); with OVCAR-8 it was > 100 µM (inactive); in the test with 786-0 it was > 100 µM (inactive); with Hs-578T it was 14.1 µM (inactive); in the test on HT-29, 55.2 µM (inactive); in the test with MOLT-4, 91.6 µM (inactive). Besides, the GI50 in the test with IGROV-1 was > 100 µM (inactive); with EKVX it was > 100 µM (inactive); in the test with UO-31 it was 29 µM (inactive); in the test with HCT-15 it was above 100 µM; with SNB-19 it was > 100 µM (inactive); with OVCAR-4 it was > 100 µM (inactive). The GI50 in the test with SF-539 is > 100 µM (inactive).

`CCN(CC)Cc1ccc(Nc2c3ccccc3nc3ccccc23)cc1`: the GI50 in the test with NCI-H460 was 1.19 µM (inactive); with NCI/ADR-RES, 5.48 µM (inactive); in the test on DU-145 it was 2.37 µM (inactive); in the test with BT-549, 10.1 µM (inactive); with CCRF-CEM it was 1.82 µM (inactive); with CAKI-1, 1.41 µM (inactive). Further, the GI50 with TK-10 is 6.14 µM (inactive); in the test on OVCAR-8, 3.05 µM (inactive); in the test on 786-0 it was 1.67 µM (inactive); in the test with Hs-578T it was 4.86 µM (inactive); in the test with HT-29, 1.91 µM (inactive); in the test on MOLT-4, 0.955 µM (active). Besides, the GI50 was 3 µM (inactive) with IGROV-1; 3.3 µM (inactive) in the test with EKVX; 1.9 µM (inactive) in the test on UO-31; 1 µM with HCT-15; 1.35 µM (inactive) in the test on SNB-19; 2.57 µM (inactive) in the test with OVCAR-4. Further, the GI50 with SF-539 was 1.8 µM (inactive).

For the molecule `Cn1c([N+](=O)[O-])cnc1CN1CCN(CCO)CC1`, the GI50 with NCI-H460, with NCI/ADR-RES, in the test on DU-145, in the test with BT-549, in the test on CCRF-CEM and in the test on CAKI-1 was > 100 µM (inactive) each time. The GI50 with TK-10, in the test with OVCAR-8, in the test on 786-0, in the test with Hs-578T, in the test with HT-29 and with MOLT-4 was > 100 µM (inactive) throughout. The GI50 is > 100 µM (inactive) in the test with IGROV-1; > 100 µM (inactive) in the test on EKVX; > 100 µM (inactive) with UO-31; above 100 µM in the test on HCT-15; > 100 µM (inactive) in the test with SNB-19; > 100 µM (inactive) in the test on OVCAR-4. Moreover, the GI50 with SF-539 is > 100 µM (inactive).

`O=C(Cn1nnc(-c2ccccc2)n1)N/N=C/c1cn(Cc2ccc(Cl)cc2Cl)c2ccccc12`: the GI50 was > 100 µM (inactive) in the test on NCI-H460; > 100 µM (inactive) in the test on NCI/ADR-RES; > 100 µM (inactive) with DU-145; > 100 µM (inactive) with BT-549; 44.1 µM (inactive) in the test with CCRF-CEM; > 100 µM (inactive) in the test on CAKI-1. Moreover, the GI50 is > 100 µM (inactive) in the test with TK-10; > 100 µM (inactive) with OVCAR-8; 36.9 µM (inactive) in the test on 786-0; > 100 µM (inactive) in the test with Hs-578T; > 100 µM (inactive) with HT-29; > 100 µM (inactive) in the test with MOLT-4. The GI50 in the test with IGROV-1 was > 100 µM (inactive); in the test with EKVX it was 44.5 µM (inactive); in the test with UO-31, > 100 µM (inactive); with HCT-15, above 100 µM; with SNB-19, > 100 µM (inactive); in the test on OVCAR-4, > 100 µM (inactive). For the same molecule, the GI50 in the test with SF-539 is > 100 µM (inactive).

(Values after ChEMBL document CHEMBL1201862, “PubChem BioAssay data set” (2004).)
